Reference: paper PMC12152883, “Bile acids inhibit equilibrative adenosine transport to alter adenosine receptor signaling in cholestasis” (The Journal of Biological Chemistry, 2025)
Where “and” joins values, the source holds several entries; their conditions need not be identical. Identical values can stand only once. Like-named read-outs stand apart in the source and are kept apart here.

Tests used:
ENT1 = biological target: T1, ENT1 (Homo sapiens, UniProt Q99808); assay: Inhibition of 3H-nucleoside influx by BAs in ENT1-expressing Xenopus oocytes; format: cell-based; conditions: 3H-Ado 20 μM, sodium-free buffer; for ENT1 % uptake inhibition (Ado): BA 100 μM
T1 construct: The complete ORF of ENT1 (amplified using forward primer); expressed in transfected cells; host or cells: Xenopus laevis oocytes injected with in vitro-transcribed capped mRNA from pOX-hENT1
T1 sequence (Q99808 1-456): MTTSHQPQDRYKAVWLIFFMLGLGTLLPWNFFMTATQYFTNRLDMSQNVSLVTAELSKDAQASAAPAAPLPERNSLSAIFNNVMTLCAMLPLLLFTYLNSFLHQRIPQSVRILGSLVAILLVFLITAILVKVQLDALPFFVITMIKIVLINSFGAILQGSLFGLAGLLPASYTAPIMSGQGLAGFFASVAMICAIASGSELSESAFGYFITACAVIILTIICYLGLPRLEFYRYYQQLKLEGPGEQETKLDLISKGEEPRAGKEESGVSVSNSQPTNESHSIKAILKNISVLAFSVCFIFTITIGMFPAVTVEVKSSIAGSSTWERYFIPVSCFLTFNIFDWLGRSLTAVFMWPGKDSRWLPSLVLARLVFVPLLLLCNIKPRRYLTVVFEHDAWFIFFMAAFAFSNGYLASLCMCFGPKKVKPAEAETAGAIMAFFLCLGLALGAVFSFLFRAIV
Description: (§1) We expressed individual ENTs (ENT1, ENT2, and ENT3) in X. laevis oocytes (as described above) and analyzed the Ado influx from each of the ENTs in the presence of different BAs to better understand whether the inhibition profiles differ across human ENTs. […] We also conducted an analysis of the concentration-dependent inhibition of Ado transport to estimate the IC50 values of the BAs (Fig. 4, D–F and Table 2).
(§2) Inhibition of Ado influx in H2O- and ENT-injected oocytes by treatment with different BAs at 100 μM. D–F, concentration-dependent inhibition of Ado influx in ENT-injected oocytes by different BAs. The bars represent the mean ± SD (n = 8–12 oocytes). A representative experiment from 3 to 5 independent experiments is presented. Statistical analysis was performed using one-way ANOVA with Dunnett’s multiple comparisons test; ∗p < 0.032, ∗∗p < 0.0021, ∗∗∗∗p < 0.0001.
(§3) The generated pOX expression constructs were linearized with either the Not1 or Sac1 restriction enzymes. The digested products were purified via phenol‒chloroform extraction. The mRNAs were synthesized using mMESSAGE mMACHINE (Ambion) transcription kits according to the manufacturer’s instructions. The mRNAs were purified via lithium precipitation. Oocytes were procured from Ecocyte. Prior to experiments, procured oocytes were defolliculated by treating with collagenase A-OR II solution followed by washing with Barth’s solution. Following microscopic verification, selected oocytes were incubated to recover overnight at 25 °C in a shaker incubator. Fifty nanoliters (400–800 ng/μl) of equal amounts of mRNAs were injected into defolliculated oocytes the next day. Expression of plasmids was analyzed after RNA isolation from oocyte extracts and conducting qPCR analysis with gene-specific primers as described earlier ([30]). The injected oocytes were incubated at 15 °C for 24 h before transport assays were performed. […] Uptake was terminated by washing the oocytes three times with arrest buffer containing 20 mM uridine. Individual oocytes were shaken overnight in 10% SDS for complete dissolution, and then the radioactivity was quantified with a Beckman liquid scintillation counter. The data are presented as the mean ± SD (n = 8–12 oocytes). A representative experiment from 3 to 5 independent experiments is presented.

ENT3 = biological target: T2, ENT3 (Homo sapiens, UniProt Q9BZD2); assay: Inhibition of 3H-nucleoside influx by BAs in ENT3-expressing Xenopus oocytes; format: cell-based
T2 construct: plasma membrane–directed ENT3 with a truncated N-terminus (that harbors lysosomal targeting motif); expressed in transfected cells; host or cells: Xenopus laevis oocytes injected with in vitro-transcribed mRNA from pOX-Δ36hENT3
T2 sequence (Q9BZD2 with tags, fused parts or gaps): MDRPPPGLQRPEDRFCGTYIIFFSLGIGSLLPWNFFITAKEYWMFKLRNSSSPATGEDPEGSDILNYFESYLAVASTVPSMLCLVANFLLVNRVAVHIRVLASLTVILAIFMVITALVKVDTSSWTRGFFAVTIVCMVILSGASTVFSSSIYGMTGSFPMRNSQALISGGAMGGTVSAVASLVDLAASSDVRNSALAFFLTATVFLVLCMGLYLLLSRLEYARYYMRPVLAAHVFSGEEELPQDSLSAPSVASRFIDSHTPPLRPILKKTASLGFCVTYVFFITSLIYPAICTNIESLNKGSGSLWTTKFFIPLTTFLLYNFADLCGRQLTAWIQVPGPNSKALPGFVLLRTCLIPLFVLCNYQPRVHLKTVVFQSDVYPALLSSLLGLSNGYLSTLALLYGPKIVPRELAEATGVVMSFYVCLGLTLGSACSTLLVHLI
Description: as §1, §2, §3

[1] = read-out: ENT1 IC50 (Ado uptake)
[2] = 3H-Ado 20 μM, sodium-free buffer, read-out: ENT3 IC50 (Ado uptake)
[3] = BA 100 μM, 3H-Ado 20 μM, sodium-free buffer

Row | Compound | IC50 (ENT1; [1]) [µM] | ENT1 % uptake inhibition (Ado) (ENT1) | IC50 (ENT3; [2]) [µM] | ENT3 % uptake inhibition (Ado) (ENT3; [3]) | inhibition of guanosine transport activity of ENT3 (ENT3; BA 100 μM, 3H-guanosine 20 μM) | IC50 (ENT1; ENT1 IC50 (Ado uptake)) [µM] | IC50 (ENT3) [µM]
1 | C[C@H](CCC(=O)O)[C@H]1CC[C@H]2[C@@H]3[C@H](O)C[C@@H]4C[C@H](O)CC[C@]4(C)[C@H]3C[C@H](O)[C@]12C [CA, cholic acid] | 42.1 ± 8.7 | 45.48% | 1.2 ± 0.4 | 77.1% |  |  | 
2 | C[C@H](CCC(=O)O)[C@H]1CC[C@H]2[C@@H]3CC[C@@H]4C[C@H](O)CC[C@]4(C)[C@H]3C[C@H](O)[C@]12C [DCA, deoxycholic acid] | 56.4 ± 14.9 | 69% and 71.01% | 0.6 ± 0.1 | 79% and 79.9% | inhibited |  | 
3 | C[C@H](CCC(=O)NCCS(=O)(=O)O)[C@H]1CC[C@H]2[C@@H]3[C@H](O)C[C@@H]4C[C@H](O)CC[C@]4(C)[C@H]3C[C@H](O)[C@]12C [TCA, taurocholic acid] |  | 80.39% |  | 72.3% |  | 52.9 ± 14.6 | 52.6 ± 22.2
